In the NIST ThermoML archive (doi:10.1016/j.fluid.2016.08.002):

Assay: xn = mol fraction of the nth substance listed
Conditions: Gas, Vibrating tube method

S [hydrogen sulfide] + C
Conditions	mass density [kg/m3]
293.23 K, 18686 kPa, x2 = 0.8685	200.27
293.23 K, 19770 kPa, x2 = 0.8685	210.3
293.23 K, 22173 kPa, x2 = 0.8685	230.34
293.23 K, 22860 kPa, x2 = 0.8685	235.56
293.27 K, 193 kPa, x2 = 0.8197	1.54
293.27 K, 227 kPa, x2 = 0.714	1.99
293.27 K, 498 kPa, x2 = 0.8197	4.03
293.27 K, 560 kPa, x2 = 0.714	4.92
293.27 K, 7261 kPa, x2 = 0.714	85.92
293.27 K, 7749 kPa, x2 = 0.714	94.83
293.28 K, 1101 kPa, x2 = 0.714	9.72
293.28 K, 1547 kPa, x2 = 0.714	14.1
293.28 K, 2065 kPa, x2 = 0.714	19.16
293.28 K, 8092 kPa, x2 = 0.714	103.64
293.29 K, 2976 kPa, x2 = 0.714	28.53
293.29 K, 3489 kPa, x2 = 0.714	33.95
293.29 K, 8523 kPa, x2 = 0.714	108.8
293.29 K, 10516 kPa, x2 = 0.714	145.41
293.29 K, 11236 kPa, x2 = 0.714	161.66
293.29 K, 13780 kPa, x2 = 0.714	213.21
293.29 K, 19219 kPa, x2 = 0.8685	205.31
293.29 K, 23988 kPa, x2 = 0.714	321.16
293.29 K, 25012 kPa, x2 = 0.714	327.5
293.3 K, 2511 kPa, x2 = 0.714	23.63
293.3 K, 9149 kPa, x2 = 0.714	119.96
293.3 K, 9741 kPa, x2 = 0.714	129.36
293.3 K, 11789 kPa, x2 = 0.714	174.33
293.3 K, 13528 kPa, x2 = 0.714	208.17
293.3 K, 14426 kPa, x2 = 0.714	223.09
293.3 K, 15049 kPa, x2 = 0.714	233.3
293.3 K, 15503 kPa, x2 = 0.714	239.94
293.3 K, 22979 kPa, x2 = 0.714	314.55
293.3 K, 23460 kPa, x2 = 0.714	317.83
293.3 K, 24512 kPa, x2 = 0.714	324.48
293.3 K, 25515 kPa, x2 = 0.714	330.43
293.3 K, 25988 kPa, x2 = 0.714	333.07
293.31 K, 6513 kPa, x2 = 0.8197	63.51
293.31 K, 6885 kPa, x2 = 0.714	80.49
293.31 K, 12964 kPa, x2 = 0.714	198.31
293.31 K, 14523 kPa, x2 = 0.714	224.65
293.31 K, 16108 kPa, x2 = 0.714	249.28
293.31 K, 21026 kPa, x2 = 0.714	300.53
293.31 K, 22118 kPa, x2 = 0.714	308.67
293.31 K, 22512 kPa, x2 = 0.714	311.24
293.31 K, 23712 kPa, x2 = 0.714	319.93
293.31 K, 26506 kPa, x2 = 0.714	335.86
293.32 K, 5019 kPa, x2 = 0.8197	46.91
293.32 K, 5508 kPa, x2 = 0.8197	52.59
293.32 K, 5943 kPa, x2 = 0.714	66.82
293.32 K, 7004 kPa, x2 = 0.8197	68.5
293.32 K, 7520 kPa, x2 = 0.8197	74.89
293.32 K, 8507 kPa, x2 = 0.8197	87.23
293.32 K, 9526 kPa, x2 = 0.8197	100.87
293.32 K, 10518 kPa, x2 = 0.8197	114.24
293.32 K, 12220 kPa, x2 = 0.714	183.56
293.32 K, 12521 kPa, x2 = 0.714	189.88
293.32 K, 22053 kPa, x2 = 0.714	308.34
293.33 K, 1434 kPa, x2 = 0.8197	12.03
293.33 K, 3440 kPa, x2 = 0.8197	30.85
293.33 K, 6464 kPa, x2 = 0.714	75.29
293.33 K, 8008 kPa, x2 = 0.8197	80.89
293.33 K, 9072 kPa, x2 = 0.8197	94.8
293.33 K, 10169 kPa, x2 = 0.714	136.99
293.33 K, 10922 kPa, x2 = 0.8197	121.63
293.33 K, 18012 kPa, x2 = 0.714	271.26
293.33 K, 18543 kPa, x2 = 0.714	276.99
293.33 K, 19012 kPa, x2 = 0.714	281.75
293.33 K, 19476 kPa, x2 = 0.714	286.23
293.33 K, 21863 kPa, x2 = 0.714	306.8
293.33 K, 26879 kPa, x2 = 0.714	337.31
293.33 K, 29517 kPa, x2 = 0.714	349.82
293.33 K, 29998 kPa, x2 = 0.714	352.02
293.34 K, 6006 kPa, x2 = 0.8197	58.11
293.34 K, 14027 kPa, x2 = 0.8197	162.75
293.34 K, 14501 kPa, x2 = 0.8197	169.12
293.34 K, 16524 kPa, x2 = 0.714	253.44
293.34 K, 17035 kPa, x2 = 0.714	260.09
293.34 K, 20081 kPa, x2 = 0.714	291.58
293.34 K, 20504 kPa, x2 = 0.714	295.67
293.34 K, 22090 kPa, x2 = 0.8197	248.06
293.35 K, 936 kPa, x2 = 0.8197	7.74
293.35 K, 2422 kPa, x2 = 0.8197	20.5
293.35 K, 4502 kPa, x2 = 0.8197	41.72
293.35 K, 11685 kPa, x2 = 0.8197	130.63
293.35 K, 17740 kPa, x2 = 0.714	267.95
293.35 K, 21512 kPa, x2 = 0.8197	243.53
293.36 K, 1962 kPa, x2 = 0.8197	16.56
293.36 K, 12068 kPa, x2 = 0.8197	136.11
293.36 K, 12506 kPa, x2 = 0.8197	142.15
293.36 K, 13036 kPa, x2 = 0.8197	149.41
293.36 K, 13500 kPa, x2 = 0.8197	155.72
293.37 K, 10013 kPa, x2 = 0.8197	107.38
293.37 K, 15006 kPa, x2 = 0.8197	175.59
293.37 K, 22488 kPa, x2 = 0.8197	251.05
293.37 K, 26028 kPa, x2 = 0.8197	274.53
293.37 K, 27520 kPa, x2 = 0.8197	283
293.37 K, 29405 kPa, x2 = 0.8197	292.65
293.37 K, 29932 kPa, x2 = 0.8197	295.13
293.38 K, 2915 kPa, x2 = 0.8197	26.63
293.38 K, 27986 kPa, x2 = 0.8197	285.56
293.38 K, 28437 kPa, x2 = 0.8197	287.96
293.38 K, 28979 kPa, x2 = 0.8197	290.66
293.39 K, 5407 kPa, x2 = 0.714	58.83
293.39 K, 22971 kPa, x2 = 0.8197	254.58
293.39 K, 24024 kPa, x2 = 0.8197	261.83
293.39 K, 24659 kPa, x2 = 0.8197	266.01
293.4 K, 17009 kPa, x2 = 0.8197	200
293.4 K, 29019 kPa, x2 = 0.714	347.54
293.41 K, 16017 kPa, x2 = 0.8197	188.26
293.41 K, 17526 kPa, x2 = 0.8197	205.67
293.41 K, 19019 kPa, x2 = 0.8197	221.14
293.41 K, 19519 kPa, x2 = 0.8197	225.91
293.41 K, 20054 kPa, x2 = 0.8197	230.93
293.41 K, 21059 kPa, x2 = 0.8197	239.83
293.41 K, 23490 kPa, x2 = 0.8197	258.21
293.41 K, 25538 kPa, x2 = 0.8197	271.56
293.41 K, 27022 kPa, x2 = 0.8197	280.18
293.42 K, 3851 kPa, x2 = 0.714	38.01
293.42 K, 3941 kPa, x2 = 0.8197	35.88
293.42 K, 18033 kPa, x2 = 0.8197	211.2
293.42 K, 18536 kPa, x2 = 0.8197	216.41
293.42 K, 20511 kPa, x2 = 0.8197	234.95
293.42 K, 25034 kPa, x2 = 0.8197	268.44
293.42 K, 26523 kPa, x2 = 0.8197	277.36
293.42 K, 28586 kPa, x2 = 0.714	345.52
293.43 K, 4386 kPa, x2 = 0.714	46.59
293.43 K, 28085 kPa, x2 = 0.714	343.33
293.44 K, 4823 kPa, x2 = 0.714	51.27
293.45 K, 15532 kPa, x2 = 0.8197	182.32
293.45 K, 16485 kPa, x2 = 0.8197	193.92
293.53 K, 27520 kPa, x2 = 0.714	340.85
293.64 K, 27145 kPa, x2 = 0.714	339.08
